# From ChEMBL document CHEMBL1129670, “Synthesis and structure-activity relationships of N-propyl-N-(4-pyridinyl)-1H-indol-1-amine (besipirdine) and related analogs as potential therapeutic agents for Alzheimer's disease” (J Med Chem, 1996)
# pIC50: −log10 of the molar value.
# Key:
# [1] = test system: Mus musculus; assay: Antagonistic activity against Scopolamine induced behavioral deficits in mice at dose 0.16 mg/kg sc; type: functional; conditions: route subcutaneous
# [2] = species on record: Mus musculus; assay: Antagonistic activity against Scopolamine induced behavioral deficits in mice; 2/6; type: functional
# [3] = species on record: Mus musculus; assay: animal or person
# Description: Effective dose against administration in mice
# [4] = molecular target: Muscarinic acetylcholine receptor; type: cell membranes, Membrane
# Description: Inhibition of [3H]quinuclidinyl benzilate (QNB) binding from rat forebrain membranes in the absence of Zn
# [5] = molecular target: Sodium-dependent noradrenaline transporter (Homo sapiens, UniProt P23975)
# Description: Inhibitory activity against norepinephrine (NE) uptake in rat whole brain synaptosome preparation
# [6] = molecular target: Muscarinic acetylcholine receptor; type: cell membranes, Membrane; remark: listed apart in the source
# Description: Inhibition of [3H]quinuclidinyl benzilate (QNB) binding from rat forebrain membranes in the presence of Zn
# [7] = species on record: Mus musculus; conditions: dose 0.63 mg/kg; route subcutaneous
# Description: Antagonistic activity against Scopolamine induced behavioral deficits in mice at dose 0.63 mg/kg sc
# [8] = molecular target: T1, Acetylcholinesterase (Rattus norvegicus, UniProt P37136)
# T1 sequence (P37136 whole entry): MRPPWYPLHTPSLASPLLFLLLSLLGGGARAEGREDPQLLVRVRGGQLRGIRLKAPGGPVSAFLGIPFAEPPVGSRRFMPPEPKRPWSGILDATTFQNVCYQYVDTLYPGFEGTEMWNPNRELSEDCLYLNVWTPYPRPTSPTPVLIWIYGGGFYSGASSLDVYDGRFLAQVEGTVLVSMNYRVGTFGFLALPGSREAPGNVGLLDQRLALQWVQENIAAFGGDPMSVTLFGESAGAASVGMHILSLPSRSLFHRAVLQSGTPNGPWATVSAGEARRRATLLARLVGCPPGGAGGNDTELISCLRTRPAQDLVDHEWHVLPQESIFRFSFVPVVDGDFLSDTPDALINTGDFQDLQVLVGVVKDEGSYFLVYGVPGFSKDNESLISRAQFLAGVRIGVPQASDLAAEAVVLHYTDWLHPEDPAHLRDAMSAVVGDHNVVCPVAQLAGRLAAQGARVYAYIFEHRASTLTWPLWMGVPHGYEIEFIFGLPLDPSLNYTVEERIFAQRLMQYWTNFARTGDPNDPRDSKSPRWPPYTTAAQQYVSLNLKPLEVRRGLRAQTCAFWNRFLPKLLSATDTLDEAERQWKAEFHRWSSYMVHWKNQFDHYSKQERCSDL
# Description: Inhibitory activity against acetylcholinesterase in rat striatal preparation
# [9] = molecular target: T2, Adrenergic receptor alpha-2 (Rattus norvegicus, UniProt P22086+P19328+P22909); assay: Inhibitory activity against [3H]clonidine binding to Alpha-2 adrenergic receptor in rat cortex
# T2 sequence (P22086 whole entry): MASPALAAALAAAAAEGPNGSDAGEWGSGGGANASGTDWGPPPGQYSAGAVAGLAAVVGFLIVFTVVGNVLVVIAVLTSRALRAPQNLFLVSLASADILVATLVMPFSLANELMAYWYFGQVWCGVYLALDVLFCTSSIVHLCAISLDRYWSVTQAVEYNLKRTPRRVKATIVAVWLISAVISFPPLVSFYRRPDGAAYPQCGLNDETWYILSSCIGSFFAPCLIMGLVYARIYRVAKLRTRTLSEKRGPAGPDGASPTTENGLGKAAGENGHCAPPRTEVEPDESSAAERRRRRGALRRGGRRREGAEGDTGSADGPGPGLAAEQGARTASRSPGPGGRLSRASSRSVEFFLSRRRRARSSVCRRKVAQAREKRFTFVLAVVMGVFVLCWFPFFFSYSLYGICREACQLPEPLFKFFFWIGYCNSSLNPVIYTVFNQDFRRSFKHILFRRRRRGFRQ
# T2 sequence (P19328 whole entry): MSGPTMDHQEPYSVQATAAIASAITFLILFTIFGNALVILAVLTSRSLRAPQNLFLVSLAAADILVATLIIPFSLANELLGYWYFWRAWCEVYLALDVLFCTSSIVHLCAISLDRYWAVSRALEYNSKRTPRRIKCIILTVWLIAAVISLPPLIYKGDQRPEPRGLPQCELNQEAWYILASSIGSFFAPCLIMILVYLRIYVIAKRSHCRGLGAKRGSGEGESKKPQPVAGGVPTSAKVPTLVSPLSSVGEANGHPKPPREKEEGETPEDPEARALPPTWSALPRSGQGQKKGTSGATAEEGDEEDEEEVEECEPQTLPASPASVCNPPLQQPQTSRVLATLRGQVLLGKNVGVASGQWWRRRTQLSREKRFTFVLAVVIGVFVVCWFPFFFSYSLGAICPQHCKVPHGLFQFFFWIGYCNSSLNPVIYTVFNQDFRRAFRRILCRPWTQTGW
# T2 sequence (P22909 whole entry): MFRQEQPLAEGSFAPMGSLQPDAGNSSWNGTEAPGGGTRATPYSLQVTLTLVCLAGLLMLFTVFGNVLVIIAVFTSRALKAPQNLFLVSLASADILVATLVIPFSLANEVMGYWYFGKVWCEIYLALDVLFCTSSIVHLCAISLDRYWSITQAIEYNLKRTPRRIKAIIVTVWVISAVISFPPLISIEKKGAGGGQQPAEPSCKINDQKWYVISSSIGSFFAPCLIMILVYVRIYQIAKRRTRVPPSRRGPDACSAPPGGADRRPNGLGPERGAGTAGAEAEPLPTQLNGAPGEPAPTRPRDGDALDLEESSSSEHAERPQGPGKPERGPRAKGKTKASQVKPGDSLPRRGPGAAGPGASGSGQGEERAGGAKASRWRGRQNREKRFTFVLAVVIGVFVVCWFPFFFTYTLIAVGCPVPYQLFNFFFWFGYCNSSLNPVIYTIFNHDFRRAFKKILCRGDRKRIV
# [10] = test system: Mus musculus; assay: Antagonistic activity against Scopolamine induced behavioral deficits in mice at dose 1.25 mg/kg sc; type: functional; conditions: route subcutaneous
# [11] = test system: Mus musculus; assay: Antagonistic activity against Scopolamine induced behavioral deficits in mice at dose 10 mg/kg sc; type: functional; conditions: route subcutaneous
# [12] = test system: Mus musculus; assay: Antagonistic activity against Scopolamine induced behavioral deficits in mice at dose 5.0 mg/kg sc; 2/8; type: functional
# [13] = molecular target: T3, Adrenergic receptor alpha-1 (Rattus norvegicus, UniProt P15823+P23944+P43140); assay: Inhibitory activity against [3H]WB-4101 binding to Alpha-1 adrenergic receptor in rat whole brain membrane; type: cell membranes
# T3 sequence (P15823 whole entry): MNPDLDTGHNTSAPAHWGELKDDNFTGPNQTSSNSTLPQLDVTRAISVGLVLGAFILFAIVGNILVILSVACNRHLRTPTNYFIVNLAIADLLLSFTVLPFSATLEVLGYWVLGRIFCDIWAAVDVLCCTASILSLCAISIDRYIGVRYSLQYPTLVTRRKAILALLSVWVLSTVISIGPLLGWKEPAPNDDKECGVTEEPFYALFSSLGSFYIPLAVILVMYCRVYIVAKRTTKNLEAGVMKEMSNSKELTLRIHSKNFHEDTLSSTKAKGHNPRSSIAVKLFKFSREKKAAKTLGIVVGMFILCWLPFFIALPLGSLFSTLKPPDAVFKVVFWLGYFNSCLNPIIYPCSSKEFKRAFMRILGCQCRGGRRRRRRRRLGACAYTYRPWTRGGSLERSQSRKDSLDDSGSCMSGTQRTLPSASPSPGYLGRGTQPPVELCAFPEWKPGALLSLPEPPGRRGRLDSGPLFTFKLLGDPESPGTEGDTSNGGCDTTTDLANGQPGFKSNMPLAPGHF
# T3 sequence (P23944 whole entry): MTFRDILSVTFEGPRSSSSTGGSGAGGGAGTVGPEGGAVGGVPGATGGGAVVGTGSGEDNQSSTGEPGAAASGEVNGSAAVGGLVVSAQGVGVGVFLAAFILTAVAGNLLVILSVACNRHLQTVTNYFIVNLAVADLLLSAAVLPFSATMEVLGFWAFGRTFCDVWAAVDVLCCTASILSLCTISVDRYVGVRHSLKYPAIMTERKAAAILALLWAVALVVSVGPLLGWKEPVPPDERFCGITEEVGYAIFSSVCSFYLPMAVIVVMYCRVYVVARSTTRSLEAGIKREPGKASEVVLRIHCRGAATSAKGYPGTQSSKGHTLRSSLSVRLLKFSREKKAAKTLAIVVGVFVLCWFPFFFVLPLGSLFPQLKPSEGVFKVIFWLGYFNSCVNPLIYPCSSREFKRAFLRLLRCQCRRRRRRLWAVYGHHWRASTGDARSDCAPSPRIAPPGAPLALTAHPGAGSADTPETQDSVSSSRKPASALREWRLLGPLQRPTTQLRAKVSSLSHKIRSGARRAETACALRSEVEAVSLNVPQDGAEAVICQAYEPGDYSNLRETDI
# T3 sequence (P43140 whole entry): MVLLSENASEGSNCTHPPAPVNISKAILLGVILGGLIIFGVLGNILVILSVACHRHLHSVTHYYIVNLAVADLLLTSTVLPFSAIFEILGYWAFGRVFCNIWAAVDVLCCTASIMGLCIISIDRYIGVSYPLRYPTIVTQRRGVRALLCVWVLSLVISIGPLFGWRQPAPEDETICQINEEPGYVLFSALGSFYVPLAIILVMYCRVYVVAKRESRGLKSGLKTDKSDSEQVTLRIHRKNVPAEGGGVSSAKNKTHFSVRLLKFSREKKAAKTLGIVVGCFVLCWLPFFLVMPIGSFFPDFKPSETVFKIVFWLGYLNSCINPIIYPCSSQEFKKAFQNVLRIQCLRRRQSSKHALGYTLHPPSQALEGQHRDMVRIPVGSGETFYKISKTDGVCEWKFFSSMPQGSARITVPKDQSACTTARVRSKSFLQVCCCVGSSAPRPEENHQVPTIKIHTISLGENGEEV
# [14] = test system: Mus musculus; assay: Antagonistic activity against Scopolamine induced behavioral deficits in mice at dose 0.04 mg/kg sc; type: functional; conditions: route subcutaneous
# [15] = species on record: Mus musculus; assay: Antagonistic activity against Scopolamine induced behavioral deficits in mice; 2/10; type: functional
# [16] = test system: Mus musculus; assay: Antagonistic activity against Scopolamine induced behavioral deficits in mice at dose […] sc; type: functional; conditions: route subcutaneous
# Sequence of Sodium-dependent noradrenaline transporter (P23975 whole entry): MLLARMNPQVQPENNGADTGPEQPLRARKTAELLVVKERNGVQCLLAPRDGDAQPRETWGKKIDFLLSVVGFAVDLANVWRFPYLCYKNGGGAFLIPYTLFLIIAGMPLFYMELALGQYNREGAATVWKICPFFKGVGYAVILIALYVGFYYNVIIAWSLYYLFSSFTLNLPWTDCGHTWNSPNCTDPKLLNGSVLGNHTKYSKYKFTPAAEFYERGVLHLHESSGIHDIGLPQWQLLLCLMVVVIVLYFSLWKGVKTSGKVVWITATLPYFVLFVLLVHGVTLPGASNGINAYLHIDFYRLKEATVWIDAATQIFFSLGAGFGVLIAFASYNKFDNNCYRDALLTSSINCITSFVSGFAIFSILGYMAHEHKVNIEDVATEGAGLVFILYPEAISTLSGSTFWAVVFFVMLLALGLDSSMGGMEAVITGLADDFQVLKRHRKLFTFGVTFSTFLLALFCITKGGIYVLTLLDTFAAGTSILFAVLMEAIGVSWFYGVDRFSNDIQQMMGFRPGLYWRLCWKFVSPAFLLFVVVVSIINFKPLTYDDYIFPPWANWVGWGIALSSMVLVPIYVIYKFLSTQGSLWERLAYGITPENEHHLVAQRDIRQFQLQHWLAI
SMILES,Response [1] [%],Antagonism [2],ED50 [3] [mg/kg],IC50 [4] [µM],pIC50 [5],IC50 [6] [µM],Response [7] [%],pIC50 [8],IC50 [9] [µM],Response [10] [%],Response [11] [%],Antagonism [12],IC50 [13] [µM],Response [14] [%],Antagonism [15],Response [16] [%]
CCCN(c1[nH]cnc2ncnc1-2)n1ccc2ccccc21,20,2,> 20,> 300,4.92,58,20,–,–,–,–,–,–,–,–,–
CCCN(c1ccncc1)n1c2ccccc2c2ccccc21.O=C(O)/C=C/C(=O)O,–,–,1.5,5.5,5.62,0.5,–,< 4.00,0.54,20,24,2,3.2,–,–,–
CCCN(c1ccncc1)n1cc(C)c2ccccc21,–,–,1.8,19,5.89,4.5,–,4.54,2.5,–,–,–,–,22,2,20
